Test results: paper PMC10026764, “Overcoming the imatinib-resistant BCR-ABL mutants with new ureidobenzothiazole chemotypes endowed with potent and broad-spectrum anticancer activity” (Journal of Enzyme Inhibition and Medicinal Chemistry, 2023)
Where “and” joins values, the source holds several entries; their conditions need not be identical. Equal entries are not always repeated. Where two headings read alike, the source gives them in different places.

Experiments:
[1] = system: K-562 cell line; parameters: method as in PMID 25881828; conditions: K-562, single dose 10 μM; cited from earlier work
[2] = target: T1, BCR-ABL^T315I (Homo sapiens, UniProt P00519, T315I); conditions: reported values ref 19; cited from earlier work
T1 construct: purchased Reaction Biology Corporation (RBC, Malvern, PA, USA)

[3] = target: T2, BCR-ABL^WT (Homo sapiens, UniProt P00519); parameters: method as in PMID 25881828; conditions: reported values ref 19; cited from earlier work
[4] = target: T2, BCR-ABL^WT; assay: In vitro kinase screening (RBC), BCR-ABL^WT; type: biochemical; conditions: 10-dose IC50 mode, 3-fold serial dilution, 10 μM ATP
[5] = target: DDR1 (Homo sapiens, UniProt Q08345); assay: Kinase selectivity test against DDR1; type: biochemical
Procedure: On the other hand, to gain certain insights about the kinase selectivity of this array of ureidobenzothiazoles, compounds 2a and 2b were tested against DDR1 (Figure 4). Discoidin domain receptors (DDR1/2) are transmembrane receptor tyrosine kinases (RTKs), activated by fibrillar collagens. DDR1/2 and BCR-ABL share almost 61% sequence similarities in their ATP binding domains. […] This observation points out the merit of these ureidobenzothiazoles over the known BCR-ABL inhibitors in achieving exceptional selectivity towards BCR-ABL.

[6] = system: L132 normal cell; assay: MTT antiproliferative assay; conditions: Homo sapiens, L132, 72 h, read-out: GI50 L132
Source text: (§1) These cellular outcomes define the impact of BCR-ABL inhibition on the proliferation of K-562 cells.

[7] = target: T1, BCR-ABL^T315I; assay: In vitro kinase screening (RBC), BCR-ABL^T315I; type: biochemical; conditions: 10-dose IC50 mode, 3-fold serial dilution, 10 μM ATP
[8] = system: leukaemia K-562 cells; assay: MTT antiproliferative assay; conditions: for GI50: Homo sapiens, K562, 72 h, read-out: GI50 K-562; for SI: selectivity index (GI50 (L132)/GI50 (K562)): MTT, 72 h
Source text: as §1

[9] = system: NCI-60 cell lines; assay: NCI-60 single dose SRB assay (panel); type: cell-based; conditions: single dose 10 μM
Source text: To gain further insights about the anticancer profile of this new ureidobenzothiazole chemotypes, the structures of all final compounds were submitted to the National Cancer Institute (NCI, Developmental Therapeutics Program, Bethesda, MD, USA). Based on NCI selection criteria, compounds 2b (AK-HW-90), 2e, and 2f were chosen for broad screening against a library of 60 human cancer cell lines, representing nine types of blood and solid cancers. Employing the highly sensitive sulforhodamine B (SRB) assay, compounds 2b, 2e, and 2f were tested initially at a single dose of 10 μM, and their detailed activities on the percentages growth of the NCI-60 cell lines were illustrated in Figure 5, and compared with that observed for the lead benzothiazole AKE-5l.

Sequence of DDR1 (Q08345 19-913, species assumed): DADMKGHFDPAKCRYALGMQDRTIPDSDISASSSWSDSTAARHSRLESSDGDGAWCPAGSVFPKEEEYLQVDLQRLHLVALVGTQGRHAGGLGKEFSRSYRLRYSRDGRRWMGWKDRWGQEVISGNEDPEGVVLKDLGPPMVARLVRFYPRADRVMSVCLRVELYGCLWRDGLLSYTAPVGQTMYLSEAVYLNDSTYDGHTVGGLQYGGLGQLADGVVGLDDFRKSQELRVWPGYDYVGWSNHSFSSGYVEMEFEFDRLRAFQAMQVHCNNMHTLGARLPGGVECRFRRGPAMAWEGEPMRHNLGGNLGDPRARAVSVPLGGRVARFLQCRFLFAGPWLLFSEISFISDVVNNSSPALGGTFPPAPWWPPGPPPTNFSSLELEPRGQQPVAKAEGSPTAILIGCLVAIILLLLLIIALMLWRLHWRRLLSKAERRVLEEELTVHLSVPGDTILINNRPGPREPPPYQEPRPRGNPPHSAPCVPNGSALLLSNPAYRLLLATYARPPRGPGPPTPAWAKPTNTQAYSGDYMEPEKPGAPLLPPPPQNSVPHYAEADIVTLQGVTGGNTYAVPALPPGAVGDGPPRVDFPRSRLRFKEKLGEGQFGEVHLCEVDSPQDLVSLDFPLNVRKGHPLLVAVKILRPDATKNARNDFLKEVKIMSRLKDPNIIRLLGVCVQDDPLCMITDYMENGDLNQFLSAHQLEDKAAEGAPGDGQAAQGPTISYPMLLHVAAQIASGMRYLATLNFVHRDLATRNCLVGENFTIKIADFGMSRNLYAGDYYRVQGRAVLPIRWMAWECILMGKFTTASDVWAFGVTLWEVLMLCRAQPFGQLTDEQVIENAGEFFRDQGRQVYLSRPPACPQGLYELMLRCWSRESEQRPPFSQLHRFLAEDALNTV

Compound | % growth [1] | IC50 [2] | IC50 [3] | IC50 [4] | IC50 [5] | GI50 [6] | IC50 [7] | GI50 [8] | SI: selectivity index (GI50 (L132)/GI50 (K562)) [8] | number of cancer cells with cytostatic growth inhibitory activity (% growth less than 40) [9]
CNC(=O)c1cc(Oc2ccc3nc(NC(=O)NCCCN4CCN(C)CC4)sc3c2)ccn1 [AKE-5l] | 10.22% | 39.9 nM | 18.2 nM | – | – | – | – | – | – | –
COc1ccccc1-c1ccc2nc(NC(=O)Nc3ccc(N4CCN(C)CC4)cc3)sc2c1 [Compound 2a] | – | – | – | 1.5 nM | 195 nM | 26800 nM | 2 nM and 2.03 nM | 4520 nM | 5.9 | –
COc1ccccc1-c1ccc2nc(NC(=O)Nc3ccc(N4CCOCC4)cc3)sc2c1 [Compound 2c] | – | – | – | 2.16 nM | – | 26100 nM | 8.11 nM | 3820 nM | 6.8 | –
COc1ccccc1-c1ccc2nc(NC(=O)Nc3cccc(C(F)(F)F)c3)sc2c1 [Compound 2d] | – | – | – | – | – | – | – | > 10000 nM | – | –
COc1ccccc1-c1ccc2nc(NC(=O)Nc3ccc(CN4CCOCC4)c(C(F)(F)F)c3)sc2c1 [Compound 2f] | – | – | – | 74.6 nM | – | – | 226 nM | > 10000 nM | – | 14 cancer cells
